{
  "source": "patent US10777299B2",
  "about": "“Systems and methods for matching oncology signatures” (THE TRUSTEES OF COLUMBIA UNIVERSITY IN THE CITY OF NEW YORK, priority 2015, dated 2020)",
  "key": {"[1]": {"tested_on": "patient-0 metastasis checkpoint MRs", "assay": "OncoTreat: VIPER-inferred MR reversal after compound perturbation of H-STS cells, patient-0 MRs", "format": "cell-based, human", "settings": "H-STS cell perturbation, FIG. 10A", "experimental": "(§1) To assess the ability of these compounds to induce Tumor Checkpoint collapse (i.e., global inversion of patient-derived MR activity pattern), gene expression profiles were generated at 6 h and 24 h following perturbation of H-STS cells with two sub-lethal compound concentrations, the 72 h IC20 and 1/10th of that concentration in duplicate. The 24 h time point was considered more informative for long term response. These were produced by 30M SE read Illumina TruSeq profiling of RNA purified from treated cells as well as from cells treated with control media (DMSO). This ensured that the highest compound concentration can be tested that would not induce cell death processes and would thus faithfully recapitulate the compound mechanism of action (MoA) rather than the mechanisms and programs associated with cell demise. While in vivo endpoint phenotypes (e.g., tumor viability) are not effectively recapitulated in 2D cultures in vitro, compound MoA is reasonably well-recapitulated in both contexts. One aim can be to identify compounds capable of inverting MR activity signature in vitro in a relatively faithful model of the tumor regulatory context, to assess whether these compounds would have activity in vivo.\n(§2) Drug signatures were analyzed with VIPER to assess the change in protein activity before and after the perturbation. Specifically, RX-GES were generated by differential expression of compound-treated vs. control-vehicle-treated cells at all time points and concentrations and analyzed with VIPER against the EP-NET interactome. This ranked all 5,602 regulatory proteins represented in the interactome from the one whose activity was most inhibited to the one whose activity was most increased following drug perturbation. An aREA analysis of patient samples that were well represented by the H-STS xenograft model was performed to assess enrichment of metastatic progression MRs in proteins whose activity was most inverted following drug perturbation. Since validation of these predictions was performed in H-STS mouse xenograft models, the analysis was limited to each NET-MET MRs that were recapitulated in the H-STS xenograft. […] Rather they allow optimal tuning of the results to available in vitro and in vivo models for optimal design of validation assays. Thus, the OncoTreat methodology uses the ability to prioritize small molecule compounds that optimally reverse a patient-specific MR activity signature.\nFIG. 15 depicts the enrichment of the top 50 most activated (shown in red in the enrichment plots) and the top 50 most deactivated (shown in blue) proteins in patient 0 on the protein activity signature induced by each compound perturbation in the H-STS cell line. […] The colored bar indicates the tissue of origin for each of the evaluated tumors. […]"}, "[2]": {"tested_on": "H-STS xenograft checkpoint MRs", "assay": "OncoTreat: VIPER-inferred MR reversal after compound perturbation of H-STS cells, xenograft MRs", "format": "cell-based, human", "settings": "H-STS cell perturbation", "experimental": "as §1, §2\nFIG. 15 depicts the enrichment of the top 50 most activated (shown in red in the enrichment plots) and the top 50 most deactivated (shown in blue) proteins in patient 0 on the protein activity signature induced by each compound perturbation in the H-STS cell line. […] The colored bar indicates the tissue of origin for each of the evaluated tumors."}, "[3]": {"tested_on": "rectal neuroendocrine tumor metastasis (NET-MET) tumor checkpoint", "assay": "Drug-induced VIPER-inferred protein activity signatures in H-STS cells versus NET-MET checkpoint", "format": "cell-based, human", "settings": "H-STS cell line", "source_text": "Drug MoA information was inferred using a NET liver metastasis-derived cell line (H-STS), which recapitulated the tumor checkpoint inferred from patient's samples (FIG. 6A).\nDrug-induced VIPER-inferred protein activity signatures were obtained for a few drugs including entinostat. […] Drug MoA information was inferred using a NET liver metastasis-derived cell line (H-STS), which recapitulated the tumor checkpoint inferred from patient's samples, as shown in FIG. 6A."}, "H-STS xenograft [4]": {"tested_on": "H-STS xenograft", "assay": "H-STS xenograft tumor growth, Champions Oncology (TGI, RECIST, TR)", "format": "in vivo, mice", "settings": "for % TGI: H-STS xenograft in NOD-SCIDS mice, treated 25 days; for effect on H-STS xenograft tumor growth (FIG. 4B): H-STS xenograft models; for RECIST PD/SD/PR/CR: number of mice per response class; for % TR (tumor regression): H-STS xenograft", "experimental": "All test agents were formulated according to manufacturer's specifications. Beginning Day 0, tumor dimensions were measured twice weekly by digital caliper and data, including individual and mean estimated tumor volumes (Mean TV±SEM), were recorded for each group. Tumor volume was calculated using the formula: […].\nAt study completion, percent tumor growth inhibition (% TGI) values were calculated and reported for each treatment group (T) versus control (C) using initial (i) and final (f) tumor measurements by the formula: % TGI=[1−(Tf−Ti)/(Cf−Ci)]×100. Individual mice reporting a tumor volume >120% of the Day 0 measurement were considered to have progressive disease (PD). Individual mice with neither sufficient shrinkage nor sufficient tumor volume increases are considered to have stable disease (SD). Individual mice reporting a tumor volume ≤70% of the Day 0 measurement for two consecutive measurements over a seven day period were considered partial responders (PR). If the PR persisted until study completion, percent tumor regression (% TR) was determined using the formula: % TR=(1−Tf/Ti)×100; a mean value was calculated for the entire treatment group. Individual mice lacking palpable tumors for two consecutive measurements over a seven day period were classified as complete responders (CR). All data collected in this study were managed electronically and stored on a redundant server system.\n(§3) In vivo validation in NOD-SCIDS mice xenografts established by subcutaneous injection of H-STS cells was first conducted at Champions Oncology and then independently confirmed in the mouse hospital facility at Columbia University. Mice were enrolled in treatment arms when tumor size reached 250 mm^3 and were treated for 25 days. Tumor size was measured twice weekly by digital caliper, see methods."}, "H-STS xenograft [5]": {"tested_on": "H-STS xenograft", "assay": "H-STS xenograft tumor growth, follow-up studies at Columbia", "format": "in vivo, mice", "settings": "mean of 8 animals", "experimental": "as §3\nThis is in line with the poor effect of Bardoxolone methyl, I-BET151 and Bortezomib on xenograft tumor growth, and the strong abrogation elicited by Entinostat (FIGS. 10B and 10C). In summary, while the effect of the Entinostat, I-BET151 and Bardoxolone methyl on the reversal of patient-0 checkpoint activity inferred from the in vitro H-STS perturbation assay was confirmed in the xenograft model, only Entinostat reverted the activity of the H-STS xenograft checkpoints and abrogated tumor growth (FIG. 10).\nFIG. 10A depicts enrichment of patient-0 metastasis checkpoint MRs on the protein activity signatures induced by 6 selected compounds in the H-STS cells. FIGS. 10B and 10C depict growth curves for the H-STS xenograft while treated by vehicle control, and each of the 6 selected compounds. Curves show tumor volume for individual animals (FIG. 10B) or the mean±SEM of 8 animals (FIG. 10C). FIG. 10D depicts enrichment of patient-0 metastasis checkpoint on the protein activity signatures induced by 4 selected compounds in the H-STS xenograft. FIG. 10E depicts enrichment of H-STS xenograft checkpoint on the protein activity signatures induced by 4 selected compounds in the H-STS xenograft."}, "[6]": {"tested_on": "patient-0 checkpoint protein activity", "assay": "Xenograft transcriptome analysis after drug administration, patient-0 checkpoint", "format": "in vivo, mice", "settings": "xenograft transcriptome 3 hours after 3rd drug administration"}, "[7]": {"tested_on": "H-STS xenograft checkpoint", "assay": "Xenograft transcriptome analysis after drug administration, H-STS xenograft checkpoint", "format": "in vivo, mice", "settings": "xenograft transcriptome 3 hours after 3rd drug administration"}},
  "data": [
    {"smiles": "O=C(/C=C/c1cccc(S(=O)(=O)Nc2ccccc2)c1)NO", "note": "[Belinostat]", "values": [
      {"measurement": "reversal of patient-0 MRs (in words)", "setting": "[1]", "result": "no significant reversal"},
      {"measurement": "reversal of xenograft MRs (in words)", "setting": "[2]", "result": "no significant reversal"},
      {"measurement": "reverting the NET-MET tumor checkpoint (FIG. 4A)", "setting": "[3]", "result": "not affecting NET-MET checkpoint"},
      {"measurement": "% TGI", "setting": "H-STS xenograft [4]; 20 mg (text: 20 mg/kg/dose)", "result": 8, "unit": "%"},
      {"measurement": "% TGI", "setting": "H-STS xenograft [4]; 20 mg (text: 20 mg/kg/dose), listed as PDX101", "result": 8, "unit": "%"},
      {"measurement": "% TGI", "setting": "H-STS xenograft [4]; 40 mg", "result": "−55", "unit": "%"},
      {"measurement": "effect on H-STS xenograft tumor growth (FIG. 4B)", "setting": "H-STS xenograft [4]", "result": "did not abrogate tumor growth"},
      {"measurement": "RECIST PD/SD/PR/CR", "setting": "H-STS xenograft [4]; 20 mg", "result": "3/0/0/0"},
      {"measurement": "RECIST PD/SD/PR/CR", "setting": "H-STS xenograft [4]; 40 mg", "result": "3/0/0/0"}
    ]},
    {"smiles": "CC(C)C[C@H](NC(=O)[C@H](Cc1ccccc1)NC(=O)c1cnccn1)B(O)O", "note": "[Bortezomib]", "values": [
      {"measurement": "xenograft tumor growth versus vehicle control (FIG. 10C)", "setting": "H-STS xenograft [5]", "result": "no significant difference"},
      {"measurement": "inhibition of patient-0 checkpoint protein activity in xenograft (FIG. 10D)", "setting": "[6]", "result": "no effect"}
    ]},
    {"smiles": "Nc1ccccc1NC(=O)c1ccc(CNC(=O)OCc2cccnc2)cc1", "note": "[Entinostat]", "values": [
      {"measurement": "reversal of patient-0 MRs (in words)", "setting": "[1]", "result": "significantly abrogating"},
      {"measurement": "reversal of patient-0 MRs (in words)", "setting": "[1]; listed as entinostat", "result": "most significant reversal"},
      {"measurement": "reversal of xenograft MRs (in words)", "setting": "[2]", "result": "significantly abrogating"},
      {"measurement": "reversal of xenograft MRs (in words)", "setting": "[2]; listed as entinostat", "result": "most significant reversal"},
      {"measurement": "reverting the NET-MET tumor checkpoint (FIG. 4A)", "setting": "[3]", "result": "most potent agent"},
      {"measurement": "drug toxicity / animal deaths", "setting": "H-STS xenograft [4]; 100 mg (text: 100 mg/kg/dose), one week into the test", "result": "toxic"},
      {"measurement": "% TGI", "setting": "H-STS xenograft [4]; 25 mg (text: 25 mg/kg/dose)", "result": 112, "unit": "%"},
      {"measurement": "% TGI", "setting": "H-STS xenograft [4]; 25 mg (text: 25 mg/kg/dose), listed as MS-27-275", "result": 112, "unit": "%"},
      {"measurement": "% TGI", "setting": "H-STS xenograft [4]; 50 mg (50 mg/kg/dose)", "result": 110, "unit": "%"},
      {"measurement": "% TGI", "setting": "H-STS xenograft [4]; 50 mg (50 mg/kg/dose), listed as MS-27-275", "result": 110, "unit": "%"},
      {"measurement": "effect on H-STS xenograft tumor growth (FIG. 4B)", "setting": "H-STS xenograft [4]", "result": "abrogated completely tumor growth"},
      {"measurement": "% TR (tumor regression)", "setting": "H-STS xenograft [4]; 25 mg (text: 25 mg/kg/dose)", "result": 68, "unit": "%"},
      {"measurement": "% TR (tumor regression)", "setting": "H-STS xenograft [4]; 50 mg (50 mg/kg/dose)", "result": 58, "unit": "%"},
      {"measurement": "% TR (tumor regression)", "setting": "H-STS xenograft [4]; 100 mg (text: 100 mg/kg/dose), single surviving animal", "result": 49, "unit": "%"},
      {"measurement": "RECIST PD/SD/PR/CR", "setting": "H-STS xenograft [4]; 25 mg", "result": "0/0/3/0"},
      {"measurement": "RECIST PD/SD/PR/CR", "setting": "H-STS xenograft [4]; 50 mg", "result": "0/0/3/0"},
      {"measurement": "RECIST PD/SD/PR/CR", "setting": "H-STS xenograft [4]; 100 mg", "result": "0/0/1/0"},
      {"measurement": "xenograft tumor growth versus vehicle control (FIG. 10C)", "setting": "H-STS xenograft [5]", "result": "complete tumor growth abrogation"},
      {"measurement": "inhibition of patient-0 checkpoint protein activity in xenograft (FIG. 10D)", "setting": "[6]", "result": "strong inhibition"},
      {"measurement": "inhibition of the H-STS xenograft checkpoint in xenograft (FIG. 10E)", "setting": "[7]", "result": "significant inhibition"}
    ]},
    {"smiles": "COc1cc2c(cc1-c1c(C)noc1C)ncc1[nH]c(=O)n([C@H](C)c3ccccn3)c12", "note": "[I-BET151]", "values": [
      {"measurement": "reversal of patient-0 MRs (in words)", "setting": "[1]", "result": "significantly abrogating"},
      {"measurement": "reversal of xenograft MRs (in words)", "setting": "[2]", "result": "significantly abrogating"},
      {"measurement": "xenograft tumor growth versus vehicle control (FIG. 10C)", "setting": "H-STS xenograft [5]", "result": "no significant difference"},
      {"measurement": "inhibition of patient-0 checkpoint protein activity in xenograft (FIG. 10D)", "setting": "[6]", "result": "strong inhibition"}
    ]},
    {"smiles": "O=C1NC(=O)[C@@H](c2cn3c4c(cccc24)CCC3)[C@@H]1c1c[nH]c2ccccc12", "note": "[Tivantinib]", "values": [
      {"measurement": "% TGI", "setting": "H-STS xenograft [4]; 50 mg (50 mg/kg/dose)", "result": "−46", "unit": "%"},
      {"measurement": "% TGI", "setting": "H-STS xenograft [4]; 100 mg (text: 100 mg/kg/dose)", "result": 28, "unit": "%"},
      {"measurement": "% TGI", "setting": "H-STS xenograft [4]; 100 mg (text: 100 mg/kg/dose), listed as ARQ197", "result": 28, "unit": "%"},
      {"measurement": "% TGI", "setting": "H-STS xenograft [4]; 200 mg (text: 200 mg/kg/dose)", "result": 43, "unit": "%"},
      {"measurement": "% TGI", "setting": "H-STS xenograft [4]; 200 mg (text: 200 mg/kg/dose), listed as ARQ197", "result": 43, "unit": "%"}
    ]}
  ]
}
